Holding throughout (assay): DTP human tumour cell line panel, 48 h
For test [1], the system named is EKVX.
Test [2] concerns NCI-H522.
In test [3] the test system is SK-MEL-5.
In test [4] the test system is OVCAR-4.
The subject of test [5] is K562.
In test [6] the test system is HL-60.
In test [7] the test system is COLO 205.
For test [8], the system named is OVCAR-3.
Test [9] deals with HOP-62.
Test [10] concerns A549.
The test system of test [11] is UACC-257.
Test [12] concerns SF-539.
In test [13] the test system is A498.
In test [14] the test system is HCT-116.
Test [15] relates to HOP-92.
Test [16] concerns NCI-H226.
For test [17], the system named is OVCAR-5.

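All cell lines were grown in 96-well plates and treated with compound for 48 hours. GI50: concentration for 50% inhibition of growth.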 Active and inactive are the calls of the source. Rule as the data show it: active = GI50 up to about 1.1 µM and inactive = higher.

As for `Cc1nc(N)nn1C1OCC(O)C(O)C1O` (configuration not stated), the GI50 in test [1], in test [2], in test [3], in test [4], in test [5] and in [6] was > 100 µM (inactive) throughout. Also, the GI50 in [7], in test [8], in [9], in test [10], in [11] and in [12] was > 100 µM (inactive) each time. Further, the GI50 in test [13] and in [14] was > 100 µM (inactive) throughout.
In the case of `CN(NC1OC(CO)C(O)C(O)C1O)c1ccccc1` (configuration not stated), the GI50 is > 100 µM (inactive) in test [15]; 94.4 µM (inactive) in test [2]; > 100 µM (inactive) in [3]; > 100 µM (inactive) in test [4]; > 100 µM (inactive) in test [5]; > 100 µM (inactive) in test [6]. For the same compound, the GI50 in test [16], in [7], in test [8], in [9], in test [10] and in test [11] was > 100 µM (inactive) throughout. Further, the GI50 in [17] and in test [14] was > 100 µM (inactive) throughout.
In the case of `C1=CC(=NN=P(c2ccccc2)(c2ccccc2)c2ccccc2)C=C1`, the GI50 in test [1] is > 100 µM (inactive); in test [15] it was 55.2 µM (inactive); in [2], 88.5 µM (inactive); in test [3], > 100 µM (inactive); in test [4] it was > 100 µM (inactive); in [5], 64 µM (inactive). Further, the GI50 was 98.2 µM (inactive) in test [6]; > 100 µM (inactive) in test [7]; > 100 µM (inactive) in test [8]; > 100 µM (inactive) in test [9]; > 100 µM (inactive) in test [10]; > 100 µM (inactive) in test [11]. For the same compound, the GI50 in [17] is > 100 µM (inactive).
As to `C/C(=C\c1ccccc1)C(O)C(=O)c1nc2ccc(Cl)cc2nc1O` (configuration not stated), the GI50 in test [1] is 91.2 µM (inactive); in test [2], 52 µM (inactive); in test [3], > 100 µM (inactive); in [4] it was 26 µM (inactive); in test [5], 55.5 µM (inactive); in test [6], 27 µM (inactive). Moreover, the GI50 in test [16] was > 100 µM (inactive); in [7] it was > 100 µM (inactive); in test [8], 55.2 µM (inactive); in test [9], > 100 µM (inactive); in test [10] it was > 100 µM (inactive); in test [11], > 100 µM (inactive). Moreover, the GI50 in test [12], in [17], in test [13] and in test [14] was > 100 µM (inactive) throughout.
On to `O=C1c2ccccc2C(=O)N1CCn1nc(-c2ccccc2)cc(-c2ccccc2)c1=O`, for which the GI50 in test [1] was 51.5 µM (inactive); in [15] it was 37.8 µM (inactive); in test [2], 18.6 µM (inactive); in [3], 52.5 µM (inactive); in test [4] it was 42.1 µM (inactive); in [5], 18.2 µM (inactive). Besides, the GI50 is 8.51 µM (inactive) in [6]; 50.1 µM (inactive) in test [16]; 63.2 µM (inactive) in [7]; 27.2 µM (inactive) in [8]; > 100 µM (inactive) in test [9]; 61.5 µM (inactive) in test [10]. Moreover, the GI50 in [11] was > 100 µM (inactive); in test [12] it was > 100 µM (inactive); in test [17], > 100 µM (inactive); in test [14], 66.8 µM (inactive).
For the compound `COc1cc([C@@H]2c3cc4c(cc3[C@@H](NC(=O)c3cccc(N)c3)C3COC(=O)[C@@H]32)OCO4)cc(OC)c1O` (some centres not stated), the GI50 in [1] was 2.61 µM (inactive); in test [15], 0.946 µM (active); in test [3], 1.66 µM (inactive); in test [4], 17.4 µM (inactive); in test [5], 2.11 µM (inactive); in test [6], 0.233 µM (active). For the same compound, the GI50 is 0.236 µM (active) in test [16]; 11 µM (inactive) in [7]; 4.35 µM (inactive) in [8]; 0.0231 µM (active) in test [9]; 0.0465 µM (active) in test [10]; 10.7 µM (inactive) in test [11]. Besides, the GI50 in test [12] is 0.284 µM (active); in test [17], 2.58 µM (inactive); in test [13], 0.76 µM (active); in test [14], 2.28 µM (inactive).
`CC(=O)NNc1nc(C)c(C(=O)NNC(=O)C(=O)Nc2ccc(Cl)cc2)s1`: the GI50 in test [1] was > 100 µM (inactive); in [15], 39.5 µM (inactive); in test [2], 31.8 µM (inactive); in [3] it was > 100 µM (inactive); in test [4] it was 47 µM (inactive); in test [5], 46.2 µM (inactive). Besides, the GI50 in test [6] is > 100 µM (inactive); in test [16], > 100 µM (inactive); in test [7], > 100 µM (inactive); in test [8], 28.9 µM (inactive); in test [9], > 100 µM (inactive); in test [10] it was > 100 µM (inactive). For the same compound, the GI50 in [11], in test [12], in test [17] and in test [14] was > 100 µM (inactive) in each case.
In the case of `CC1C=C(OC(=O)c2ccccc2)C(=O)C(n2cc(F)c(=O)n(C(=O)c3ccccc3)c2=O)O1` (configuration not stated), the GI50 in test [1] is > 100 µM (inactive); in test [15], 35.6 µM (inactive); in test [3] it was 73.8 µM (inactive); in test [4] it was 52.2 µM (inactive); in test [5] it was 25.4 µM (inactive); in test [6], 23.9 µM (inactive). In addition, the GI50 is 26.9 µM (inactive) in test [7]; 22.9 µM (inactive) in test [8]; > 100 µM (inactive) in test [9]; > 100 µM (inactive) in test [10]; 70.1 µM (inactive) in [11]; 89.5 µM (inactive) in test [12]. In addition, the GI50 in test [14] was 32.1 µM (inactive).
`COc1ccc(C)cc1C1CCC(=O)O1` (configuration not stated): the GI50 in test [1], in [2], in test [3], in test [5], in test [6] and in test [16] was > 100 µM (inactive) throughout. The GI50 in test [7], in [8], in [9], in [10], in test [11] and in test [12] was > 100 µM (inactive) in each case. In addition, the GI50 in test [17], in [13] and in [14] was > 100 µM (inactive) each time.
For the compound `O=C(/C=C/c1ccccc1O)c1cccs1`, the GI50 in test [1], in [2], in [3], in [4], in test [5] and in [6] was > 100 µM (inactive) each time. In addition, the GI50 in test [16], in test [7], in test [8], in test [9], in [10] and in test [11] was > 100 µM (inactive) in each case. Also, the GI50 in [12] is > 100 µM (inactive); in test [17] it was > 100 µM (inactive); in test [13], 11.9 µM (inactive); in test [14] it was > 100 µM (inactive).
For the compound `O=C1c2cc3c(cc2[C@@H]2C(O)[C@H]4O[C@H]4C4CCN1C42)OCO3` (some centres not stated), the GI50 in test [1], in [15], in test [2], in [4], in test [5] and in [6] was > 37.5 µM (inactive) each time. Further, the GI50 in [16], in test [7], in test [8], in test [9], in test [10] and in test [12] was > 37.5 µM (inactive) in each case. The GI50 in test [17] and in [14] was > 37.5 µM (inactive) each time.
In the case of `c1ccc(N2N=C(c3ccco3)CC2c2ccco2)cc1` (configuration not stated), the GI50 is 98.9 µM (inactive) in [1]; 46.9 µM (inactive) in [2]; 51.4 µM (inactive) in [3]; > 100 µM (inactive) in [4]; 34.3 µM (inactive) in test [5]; 25.2 µM (inactive) in test [6]. For the same compound, the GI50 was 66.8 µM (inactive) in test [16]; > 100 µM (inactive) in test [7]; 59.6 µM (inactive) in test [8]; > 100 µM (inactive) in test [9]; > 100 µM (inactive) in test [10]; > 100 µM (inactive) in test [12]. Also, the GI50 is > 100 µM (inactive) in [17] and 32.5 µM (inactive) in test [14].
For the compound `O=C(c1ccccc1)c1c(CC(O)c2cccnc2)n(C(=O)c2ccccc2)c2ccccc12` (configuration not stated), the GI50 is 15 µM (inactive) in [15]; 13.1 µM (inactive) in test [2]; 16.9 µM (inactive) in test [3]; 15.2 µM (inactive) in [4]; 21.6 µM (inactive) in test [5]; 21.5 µM (inactive) in test [6]. The GI50 in test [16] is 11.7 µM (inactive); in [7], 22.3 µM (inactive); in test [8], 16.6 µM (inactive); in test [9], 16 µM (inactive); in test [10], 29.4 µM (inactive); in [11] it was 22.4 µM (inactive). Besides, the GI50 is 16.6 µM (inactive) in [12], 17.9 µM (inactive) in [17] and 15.9 µM (inactive) in test [14].

(Values after ChEMBL document CHEMBL1201862, “PubChem BioAssay data set” (2004).)
